In this test the target is T1, KCNQ2/3 potassium ion channel (Homo sapiens, UniProt O43525+O43526).
T1 construct: expressed in transfected cells; host or cells: CHO cells (hKCNQ-CHO)
As to the kind of experiment: KCNQ2/3 potassium ion channel activation assay (whole-cell patch clamp, hKCNQ-CHO cells). The note with it: test concentration 3 μM, read-out: Enhancment % (current enhancement multiple). Format: cell-based. The protocol: Example 64: KCNQ2/3 Potassium Ion Channel Activation Assay
hKCNQ-CHO cells were cultured at 37° C. in a humidified environment of 5% CO2.
• 2.1. Extracellular fluid (mM): NaCl 145, KCl 4, CaCl2 2, MgCl2 1, Glucose 10, HEPES 10. The pH value of the extracellular fluid was adjusted to 7.4 with NaOH, and the osmotic pressure was adjusted to about 295 mOsm. • 2.2. Intracellular fluid (mM (mmol/L)): KOH 31.25, KCl 120, EGTA 10, MgCl2 1.75, CaCl2 5.374, HEPES 10, Na-ATP 4. The pH value of the intracellular fluid was adjusted to 7.4 with HCl, and the osmotic pressure was adjusted to about 285 mOsm. • 2.3. The extracellular fluid should be prepared once a week, and the intracellular fluid should be stored at −20° C. after preparation.
The model positive reference compound Retigabine (RTG) was dissolved with 100% DMSO and configured as a 10 mM working solution. The test compounds were dissolved with 100% DMSO and configured as a 10 mM working solution. The final concentration of DMSO in the test solution should be less than 0.3%.
Whole-cell patch clamp was performed at room temperature. The electrical signals recorded with the EPC 10 USB amplifier (HEKA Elektronik, Germany) were filtered by a 3 kHz low-pass filter, and finally recorded in PatchMaster 2×90.5 software (HEKA Elektronik, Germany). At this step, the quality control standard was that the cell high-resistance sealing was greater than 500 MOhms, and the detection current was greater than 0.4 nA.
The recording electrodes were pulled out and polished with a vertical puller (NARISHIGE PC-10, Japan) using a borosilicate glass capillary (GC150tF-10, Harvard Apparatus Co., UK). At this step, the quality control standard was that the electrode resistance was between 2 MΩ and 5 MΩ.
During the recording process of the whole-cell patch clamp, a continuous perfusion system (BT100-2J, LongerPump, China) was used to continuously perfuse the extracellular fluid. The perfusion system was installed on the stage of an upright microscope (FN-S2N, Nikon, Japan), and the perfusion head was manually positioned under the microscope.
The voltage command for detecting the amplitude of hKCNQ current was as follows: the cell stepped from the clamping potential of −80 mV to −30 mV, and held for 1500 ms; and then the clamping voltage was lowered to −120 my and held for 500 ms; finally, the voltage returned to the clamping potential of −80 mV. The detection voltage command was repeated every 15,000 milliseconds, and the command was continuously executed during the compound test. The quality control standard for compound action stability was the current amplitude under 5 consecutive voltage commands, and the coefficient of variation of the current amplitude was <5%.
Data analysis was performed using PatchMaster 2×90.5 software (HEKA Elektronik, Germany) and Excel 2013 (Microsoft, USA) software. For each cell's patch clamp recording, the amplitude of the hKCNQ channel current (Itest) corresponding to the test compound concentration should be obtained. The enhanced channel current was obtained by subtracting the cell's original channel current (Icontrol) from Itest and dividing by Icontrol to obtain the current enhancement multiple. That is, the current enhancement multiple (Enhancment %)=(Itest −Icontrol)/Icontrol[…].
(In general: Patch clamp records ionic current or voltage across a cell membrane.)
On to `Cc1cc(N2CCCc3cc(O[C@H](C)C(F)(F)F)c(F)cc3C2)cc(C)c1NC(=O)CC(C)(C)C` [Compound 037, (R)—N-(4-(8-fluoro-7-((1,1,1-trifluoropropan-2-yl)oxy)-1,3,4,5-tetrahydro-2H-benzo[c]azepin-2-yl)-2,6-dimethylphenyl)-3,3-dimethylbutanamide], for which the activation at 3 µM is greater than 100%.
With `COc1cc2c(cc1F)CN(c1cc(C)c(NC(=O)CC(C)(C)C)c(C)c1)CCC2` [Compound 038, N-(4-(8-fluoro-7-methoxy-1,3,4,5-tetrahydro-2H-benzo[c]azepin-2-yl)-2,6-dimethylphenyl)-3,3-dimethylbutanamide] the figure was greater than 100%; with `CCC(C)Oc1cc2c(cc1F)CN(c1cc(C)c(NC(=O)CC(C)(C)C)c(C)c1)CCC2` (stereo not drawn) [Compound 039, N-(4-(7-(sec-butoxy)-8-fluoro-1,3,4,5-tetrahydro-2H-benzo[c]azepin-2-yl)-2,6-dimethylphenyl)-3,3-dimethylbutanamide], greater than 100%.
With `CC[C@H](C)Oc1cc2c(cc1F)CN(c1cc(C)c(NC(=O)CC(C)(C)C)c(C)c1)CCC2` [Compound 040, (S)—N-(4-(7-(sec-butoxy)-8-fluoro-1,3,4,5-tetrahydro-2H-benzo[c]azepin-2-yl)-2,6-dimethylphenyl)-3,3-dimethylbutanamide] the figure was greater than 100%; with `CC[C@@H](C)Oc1cc2c(cc1F)CN(c1cc(C)c(NC(=O)CC(C)(C)C)c(C)c1)CCC2` [Compound 041, (R)—N-(4-(7-(sec-butoxy)-8-fluoro-1,3,4,5-tetrahydro-2H-benzo[c]azepin-2-yl)-2,6-dimethylphenyl)-3,3-dimethylbutanamide], greater than 100%.
Then `Cc1cc(N2CCCc3cc(OC4CC4)c(F)cc3C2)cc(C)c1NC(=O)CC(C)(C)C` [Compound 042, N-(4-(7-cyclopropoxy-8-fluoro-1,3,4,5-tetrahydro-2H-benzo[c]azepin-2-yl)-2,6-dimethylphenyl)-3,3-dimethylbutanamide], with greater than 100%; and `Cc1cc(N2CCCc3cc(OC4CCC4)c(F)cc3C2)cc(C)c1NC(=O)CC(C)(C)C` [Compound 043, N-(4-(7-cyclobutoxy-8-fluoro-1,3,4,5-tetrahydro-2H-benzo[c]azepin-2-yl)-2,6-dimethylphenyl)-3,3-dimethylbutanamide], with greater than 100%.
For `Cc1cc(N2CCCc3cc(OC4CCCC4)c(F)cc3C2)cc(C)c1NC(=O)CC(C)(C)C` [Compound 044, N-(4-(7-(cyclopentyloxy)-8-fluoro-1,3,4,5-tetrahydro-2H-benzo[c]azepin-2-yl)-2,6-dimethylphenyl)-3,3-dimethylbutanamide], the activation at 3 µM was greater than 100%.
For `Cc1cc(N2CCCc3cc(OC4CCCCC4)c(F)cc3C2)cc(C)c1NC(=O)CC(C)(C)C` [Compound 045, N-(4-(7-(cyclohexyloxy)-8-fluoro-1,3,4,5-tetrahydro-2H-benzo[c]azepin-2-yl)-2,6-dimethylphenyl)-3,3-dimethylbutanamide], the activation at 3 µM is greater than 100%.
Then `Cc1cc(N2CC=Cc3cc(F)c(F)cc3C2)cc(C)c1NC(=O)CC(C)(C)C` [Compound 046, N-(4-(7,8-difluoro-1,3-dihydro-2H-benzo[c]azepin-2-yl)-2,6-dimethylphenyl)-3,3-dimethylbutanamide], with greater than 100%; and `Cc1cc(N2CCCc3cc(F)c(F)cc3C2)cc(C)c1NC(=O)CC(C)(C)C` [Compound 047, N-(4-(7,8-difluoro-1,3,4,5-tetrahydro-2H-benzo[c]azepin-2-yl)-2,6-dimethylphenyl)-3,3-dimethylbutanamide], with greater than 100%.
With `Cc1cc(N2CCCc3cc(F)c(F)cc3C2)c(Cl)c(C)c1NC(=O)CC(C)(C)C` [Compound 048, N-(3-chloro-4-(7,8-difluoro-1,3,4,5-tetrahydro-2H-benzo[c]azepin-2-yl)-2,6-dimethylphenyl)-3,3-dimethylbutanamide] the figure was greater than 100%.
With `Cc1cc(N2CCC3(CC3)c3cc(F)c(F)cc3C2)cc(C)c1NC(=O)CC(C)(C)C` [Compound 049, N-(4-(7,8-difluoro-3,4-dihydrospiro[benzo[c]azepine-5,1′-cyclopropan]-2(1H)-yl)-2,6-dimethylphenyl)-3,3-dimethylbutanamide] the figure was greater than 100%.
Consider `Cc1cc(N2CCCc3cc(OC/C=C/C(F)(F)F)ccc3C2)cc(C)c1NC(=O)CC(C)(C)C` [Compound 050, (E)-N-(2,6-dimethyl-4-(7-((4,4,4-trifluorobut-2-en-1-yl)oxy)-1,3,4,5-tetrahydro-2H-benzo[c]azepin-2-yl)phenyl)-3,3-dimethylbutanamide], for which the activation at 3 µM was greater than 100%.
With `Cc1cc(N2CCCc3cc(OC45CC(C(F)F)(C4)C5)ccc3C2)cc(C)c1NC(=O)CC(C)(C)C` [Compound 051, N-(4-(7-((3-(difluoromethyl)bicyclo[1.1.1]pentan-1-yl)oxy)-1,3,4,5-tetrahydro-2H-benzo[c]azepin-2-yl)-2,6-dimethylphenyl)-3,3-dimethylbutanamide] the figure was greater than 100%; with `COC(Oc1ccc2c(c1)CCCN(c1cc(C)c(NC(=O)CC(C)(C)C)c(C)c1)C2)C(F)(F)F` (stereo not drawn) [Compound 052, N-(2,6-dimethyl-4-(7-(2,2,2-trifluoro-1-methoxyethoxy)-1,3,4,5-tetrahydro-2H-benzo[c]azepin-2-yl)phenyl)-3,3-dimethylbutanamide], greater than 100%; with `Cc1cc(N2CCCc3cc(OCC(C)C(F)(F)F)ccc3C2)cc(C)c1NC(=O)CC(C)(C)C` (stereo not drawn) [Compound 053, N-(2,6-dimethyl-4-(7-(3,3,3-trifluoro-2-methylpropoxy)-1,3,4,5-tetrahydro-2H-benzo[c]azepin-2-yl)phenyl)-3,3-dimethylbutanamide], greater than 100%.
Then `Cc1cc(N2CCCc3cc(OCC4(C(F)(F)F)CC4)ccc3C2)cc(C)c1NC(=O)CC(C)(C)C` [Compound 054, N-(2,6-dimethyl-4-(7-((1-(trifluoromethyl)cyclopropyl)methoxy)-1,3,4,5-tetrahydro-2H-benzo[c]azepin-2-yl)phenyl)-3,3-dimethylbutanamide], with greater than 100%; and `Cc1cc(N2CCCc3cc(OC(C(F)(F)F)C(F)(F)F)ccc3C2)cc(C)c1NC(=O)CC(C)(C)C` [Compound 055, N-(4-(7-((1,1,1,3,3,3-hexafluoropropan-2-yl)oxy)-1,3,4,5-tetrahydro-2H-benzo[c]azepin-2-yl)-2,6-dimethylphenyl)-3,3-dimethylbutanamide], with greater than 100%; and `Cc1cc(N2CCCc3cc(OCCOCC(F)(F)F)ccc3C2)cc(C)c1NC(=O)CC(C)(C)C` [Compound 056, N-(2,6-dimethyl-4-(7-(2-(2,2,2-trifluoroethoxy)ethoxy)-1,3,4,5-tetrahydro-2H-benzo[c]azepin-2-yl)phenyl)-3,3-dimethylbutanamide], with greater than 100%.
In the case of `Cc1cc(N2CCCc3cc(OCC(F)(F)C(F)F)ccc3C2)cc(C)c1NC(=O)CC(C)(C)C` [Compound 057, N-(2,6-dimethyl-4-(7-(2,2,3,3-tetrafluoropropoxy)-1,3,4,5-tetrahydro-2H-benzo[c]azepin-2-yl)phenyl)-3,3-dimethylbutanamide], the activation at 3 µM is greater than 100%.

The values are drawn from US20240317689A1, “POTASSIUM CHANNEL MODULATOR, COMPOSITION AND APPLICATION” (NEUSHEN THERAPEUTICS (SHANGHAI) CO., LTD, priority 2021, published 2024).
